Legend:
[1] = Evaluation of solubility and compatibility of compound 8 (Experiment Example 8); assay type: physicochemical; conditions: 20° C.
Protocol: The solubility and the compatibility of the compound 8 obtained in Example 2 were evaluated in the following manner.
In other words, 100 mg of the compound 8 was weighed in a glass container (manufactured by NICHIDEN RIKA GLASS CO., LTD.), 10 mg of various organic solvents were added thereto in a state in which the temperature thereof was maintained to 20° C., and the solution was stirred for 10 minutes. In a case where the solid content remained, the operation of adding 10 mg of the organic solvents and stirring the solution for 10 minutes was repeated, and the amount (A mg) of the organic solvents to be used at the time of complete dissolution of the compound 8 was measured. The solubility (%) was acquired based on the value of A mg using the following equation. Solubility (%)=100 mg/(100 mg+A mg)×100

[2] = Evaluation of solvent dependence of reverse photochromic characteristics of compound 8 (Experiment Example 5); assay type: physicochemical
Protocol: The solvent dependence of the reverse photochromic characteristics of the compound 8 was evaluated in the following manner.
Various solutions of the compound 8 obtained in Example 2 were prepared using the following methods (1-1) to (1-7).
(§1) First, 1.2 mg (8.7×10^−7 mol) of the compound 8 was weighed in a vial bottle (glass bottle), and 9 mL of methanol was added thereto to prepare a solution having a concentration of 1.0×10^−4 mol/L. The obtained solution was poured into another vial bottle (glass bottle) and further diluted with methanol to prepare a methanol solution containing the compound 8 with a concentration of 5.6×10^0.5 mol/L.
as §1, with “toluene” for “methanol”, “9.3×10^−5” for “1.0×10^−4”, “1.9×10^−5” for “5.6×10^0.5”
as §1, with “10” for “9”, “acetonitrile” for “methanol”, “8.7×10^−5” for “1.0×10^−4”, “an acetonitrile” for “a methanol”, “2.2×10^−5” for “5.6×10^0.5”
as §1, with “1.1” for “1.2”, “(8.0×10^7′” for “(8.7×10^−7”, “10” for “9”, “chloroform” for “methanol”, “8.0×10^−5” for “1.0×10^−4”, “1.8×10^−5” for “5.6×10^0.5”
First, 1.5 mg […] of the compound 8 was weighed in a vial bottle (glass bottle), and 10 mL of o-dichlorobenzene was added thereto to prepare a solution having a concentration of 1.1×10^−4 mol/L. The obtained solution was poured into another vial bottle (glass bottle) and further diluted with o-dichlorobenzene to prepare an o-dichlorobenzene solution containing the compound 8 with a concentration of 2.2×10^−5 mol/L.
First, 1.3 mg (9.7×10^−7 mol) of the compound 8 was weighed in a vial bottle (glass bottle), and 10 mL of 2-propanol was added thereto to prepare a saturated solution. The supernatant of the obtained saturated solution was poured into another vial bottle (glass bottle) and further diluted with 2-propanol by three times to prepare a 2-propanol solution containing the compound 8.
as §1, with “1.4” for “1.2”, “(1.0×10^0.6” for “(8.7×10^−7”, “10” for “9”, “chlorobenzene” for “methanol”, “2.0×10^−5” for “5.6×10^0.5”
Various solutions containing the compound 8 obtained in the preparation (1) were put into a quartz cell having an optical path length of 1 cm together with a stirring bar, the solutions were irradiated with light while being stirred for 5 minutes under a condition of an irradiation intensity of 1 SUN (AM 1.5, 1000 W/m^2) using a solar simulator (product name: LAX-C100, manufactured by Asahi Spectra Co., Ltd.), and the absorbance of each solution at the maximum absorption wavelength was measured using a spectrophotometer (product name: V-670, manufactured by Jasco Corporation). Thereafter, the quartz cell was stored in a dark place, the absorbance at every fixed interval time was measured, and the temporal change of the absorbance of each solution at the maximum absorption wavelength was confirmed. […]

Solubility (%) ([1]; Epoxy resin (jER ®)): 11%
Solubility (%) ([1]; organic solvent: 1-Methoxy-2-propanol (PGME)): 38%
Solubility (%) ([1]; organic solvent: Dibutyl sebacate (DBS)): 20%
Solubility (%) ([1]; organic solvent: Ethyl acetate (AcOEt)): 50%
Solubility (%) ([1]; organic solvent: Methyl ethyl ketone (MEK)): 50%
Solubility (%) ([1]; organic solvent: Methyl methacrylate (MMA)): 50%
Solubility (%) ([1]; organic solvent: Toluene, 100 mg/(100 mg+A mg)×100): 50%
Solubility (%) ([1]; organic solvent: Triethyl phosphate (TEP)): 31%
maximum absorption wavelength ([2]; 2-propanol solution): 639 nm
maximum absorption wavelength ([2]; acetonitrile solution): 626 nm
maximum absorption wavelength ([2]; chlorobenzene solution): 659 nm
maximum absorption wavelength ([2]; chloroform solution): 650 nm
maximum absorption wavelength ([2]; methanol solution): 632 nm
maximum absorption wavelength ([2]; o-dichlorobenzene solution): 659 nm
maximum absorption wavelength ([2]; toluene solution): 653 nm
SMILES: C=C(C)C(=O)OCCOC(=O)c1ccccc1-c1c2ccc(=[N+](CC)CC)cc-2oc2c1CCC/C2=C\c1ccc2c(c1)c1ccccc1n2CC [compound 8]

Source: patent US10696898B2, “Reverse photochromic compound” (FUJIFILM Wako Pure Chemical Corporation, priority 2017, dated 2020)
